Patent publication US9365499B2, “9-aminomethyl substituted tetracycline compounds” (KBP Biosciences Co., Ltd., priority 2011, dated 2016)
In brackets after ≈: the same amount, converted by molar mass.

Experiments:
Acinetobacter baumannii = assay: antibacterial activity in vitro, agar dilution method; type: cell-based; settings: Table 5, MIC90 = 90% inhibitory concentration
Excerpt: (§1) The antibacterial spectrum and in vitro antibacterial activity of the compound of the present invention
(§2) Experimental method: the agar dilution method, with reference to Clinical And Laboratory Standards Institute. Methods for Dilution Antimicrobial Susceptibility Tests for Bacteria That Grow Aerobically; Approved Standard-Seventh Edition. CLSI Document M7-A7. Vol 26, no. 2, Wayne, Pa.: Clinical and Laboratory Standards Institute, 2006.
(§3) Wherein MIC represents the minimum inhibitory concentration, MIC90 represents the 90% inhibitory concentration.

Hemophilus influenzae = assay: as above; type: cell-based; settings: Haemophilus influenzae; Table 5; MIC90 = 90% inhibitory concentration
Excerpt: as §1, §2, §3

[1] = tested on: Methicillin-resistant Staphylococcus aureus (MRSA); assay: as above; type: cell-based; settings: Table 5, MIC90 = 90% inhibitory concentration
Excerpt: as §1, §2, §3

Staphylococcus aureus [2] = assay: as above; type: cell-based
Excerpt: as §1, §2, §3

[3] = tested on: Streptococcus constellatus; assay: as above; type: cell-based; settings: Table 5, MIC90 = 90% inhibitory concentration
Excerpt: as §1, §2, §3

in vivo = assay: in vivo; parameters: species or system male SD rats; settings: male, SD, rat
Protocol: Test animals: male SD rats, weighing 180-280 g, purchased from Beijing Vital River Laboratory Animal Technology Co., Ltd.; animal Certificate of Conformity: SCXK (Beijing) 2006-0009. Six rats were tested for each compound. the compounds of the present invention, prepared in accordance with the methods of above Examples, dissolved in physiological saline. tigecycline, dissolved in physiological saline. Administration of the compounds of the present invention: intravenous bolus injection (iv), dose: 5 mg/kg, administrating volume: 5 mL/kg; gavage (po), dose: 5 mg/kg, administrating volume: 5 mL/kg. Administration of tigecycline: gavage (po), dose: 10 mg/kg, administrating volume: 5 mL/kg. Prior to administration help but water fasting for 16 hours, 4 hours after administration to food. Compound 9: iv blood sampling time point: denoted by 0 min before administration, 5 min, 15 min, 30 min, 1 […] after administration; po blood sampling time point: denoted by 0 min before administration, 5 min, 15 min, 30 min, 1 […] after administration; Compound 20: iv blood sampling time point: 5 min, 15 min, 30 min, 1 […] after administration; po blood sampling time point: 10 min, 30 min, 1 […] after administration; Compound 23: iv blood sampling time point: denoted by 0 min before administration, 5 min, 15 min, 30 min, 1 […] after administration; po blood sampling time point: denoted by 0 min before administration, 5 min, 15 min, 30 min, 1 […] after administration; Tigecycline: iv blood sampling time point: 5 min, 15 min, 30 min, 1 h, 2 h, 4 h, 6 h, 8 h after administration; po blood sampling time point: 10 min, 30 min, 1 […] after administration. Each time point is taken around 100 μl whole blood and placed in a heparinized tube, centrifugated at 8000 rpm/min at 4° C. for 6 minutes in a low-temperature high-speed centrifuge to separate plasma, the resulting plasma was frozen at -80° C. refrigerator. Plasma samples analysis: 20 μl of plasma was taken and added 200 μl of internal standard solution, subjected to vortex for 3 minutes, then to centrifugation at 12,000 rpm/min for 5 minutes. 100 μl of supernatant was taken and analyzed using LC-MS/MS. Formula Absolute Bioavailability F%=[AUC](po)×Dose(iv)/[AUC](iv)×Dose(po)

Staphylococcus aureus [4] = assay: bactericidal effects in vivo in neutropenic mouse thigh model with Staphylococcus aureus infection; parameters: species or system mice; settings: for change values (24 h vs blank group mean 0 h) / log10 CFU for each thigh, mean ± standard deviations (24 h): 2 dose times, subcutaneous
Protocol: Bactericidal Effects of the Present Compounds In Vivo in Mouse Thigh Model with Staphylococcus aureus Infection SPF grade CD-1 (ICR) female mice housed in SPF environment, weighing 25±2 g, purchased from Beijing Vital River Laboratory Animal Technology Co., Ltd., licensed […] No: SCXK (Beijing) 2006-0009. Staphylococcus aureus: purchased from Shanghai Renji Hospital. Four days before bacterial infection, intraperitoneal (ip) injection of cyclophosphamide 150 mg/kg; 1 day before bacterial infection, intraperitoneal (ip) injection of cyclophosphamide 100 mg/kg; Picked fresh Staphylococcus aureus single colonies which were plate cultured for 18 h, and inoculated into broth and cultured at 35° C. for 18 h. The bacterial suspension was diluted with broth, and 0.5 McFarland turbidity standard indicator bacteria suspension was prepared with a McFarland turbiditor, 10-fold diluted with broth and injected into the thigh muscle of mice in an amount of 0.1 mL for each thigh. The concentration of the bacteria suspension was about 10^6-10^7 CFU/ml. The inoculum concentration was determined by an agar-plate count method. Blank Group: the animals were sacrificed by dislocation at 2 h (recorded as 0 h) after the inoculation of bacteria. Solvent group: The first administration time was set at 2 h (denoted as 0 h) after the animals were infected with bacteria, the solvent was subcutaneously administrated, the animals were sacrificed by dislocation at 24 h after the administration. Treatment group: The first administration time was set at 2 h (denoted as 0 h). […] The thigh muscle tissue was separated from the sacrificed animals, and 5 mL of sodium chloride injection was added, homogenated. The homogenate obtained were diluted series, taken 0.05 mL and inoculated to agar plates, two plates were inoculated in parallel for each gradient bacterial suspension, and incubated at 35° C. for 18 h. Observe the growth of the colonies on each plate, and select the plates with the number of colonies between 30-300 for colony count. The number of colonies was recorded as n1, n2. N represents the diluted fold. The number of colonies (units CFU) for each thigh was calculated according to the formula of “(n1+n2)/2/0.05×5×N”. A logarithm to the base 10 for the number of colonies of each thigh was calculated to obtain log10 CFU value for each thigh.

[5] = male SD rats, 5 mg/kg iv, cited from earlier work
[6] = monkey, oral; cited from earlier work
[7] = cited from earlier work

MIC90 (Acinetobacter baumannii): 4 µg/mL (≈ 6.83 µM)
MIC90 (Hemophilus influenzae): 0.5 µg/mL (≈ 0.854 µM)
MIC90 [1]: 1 µg/mL (≈ 1.71 µM)
MIC90 (Staphylococcus aureus [2]; Staphylococcus aureus, Table 5, MIC90 = 90% inhibitory concentration): 0.5 µg/mL (≈ 0.854 µM)
MIC (Staphylococcus aureus [2]; Table 10, Staphylococcus aureus of the thigh model): 0.25 µg/mL (≈ 0.427 µM)
MIC90 [3]: 0.25 µg/mL (≈ 0.427 µM)
AUC(0-inf) (in vivo; iv, 5 mg/kg): 5120 ng·h/mL
Vd (in vivo; iv, 5 mg/kg): 4.47 L/kg
clearance (in vivo; iv, 5 mg/kg): 16.5 mL/min/kg
half-life (in vivo; iv, 5 mg/kg): 228 min
AUC(0-inf) (in vivo; po, 10 mg/kg): 296 ng·h/mL
Cmax (in vivo; po, 10 mg/kg): 31.8 ng/mL
Tmax (in vivo; po, 10 mg/kg): 30 min
bioavailability (in vivo; po, 10 mg/kg): 1.8%
SMILES: CN(C)c1cc(NC(=O)CNC(C)(C)C)c(O)c2c1C[C@H]1C[C@H]3[C@H](N(C)C)C(O)=C(C(N)=O)C(=O)[C@@]3(O)C(O)=C1C2=O [tigecycline]
change values (24 h vs blank group mean 0 h) (Staphylococcus aureus [4]; 2 mg/kg/day): 1.63 log10 CFU
log10 CFU for each thigh, mean ± standard deviations (24 h) (Staphylococcus aureus [4]; 2 mg/kg/day): 8.02 ± 0.24 log10 CFU
bacteria growing values of each thigh (Staphylococcus aureus [4]; 6 mg/kg/day): 0.63
bactericidal effect against Staphylococcus aureus in vivo in mice (Staphylococcus aureus [4]; 6 mg/kg/day): did not show bactericidal effect
change values (24 h vs blank group mean 0 h) (Staphylococcus aureus [4]; 6 mg/kg/day): 0.63 log10 CFU
log10 CFU for each thigh, mean ± standard deviations (24 h) (Staphylococcus aureus [4]; 6 mg/kg/day): 7.02 ± 0.43 log10 CFU
change values (24 h vs blank group mean 0 h) (Staphylococcus aureus [4]; 18 mg/kg/day): −2.19 log10 CFU
log10 CFU for each thigh, mean ± standard deviations (24 h) (Staphylococcus aureus [4]; 18 mg/kg/day): 4.20 ± 0.25 log10 CFU
AUC ([5]; time 0-24 h): 3550 ng·h/mL
T1/2 [5]: 1 h
absorption in vivo when orally used [6]: can not be absorbed in vivo when orally used
absorption in an oral use [7]: can not be absorbed in an oral use
